Measurements published in US20140249122A1, “ANTI-DIABETIC AMINOSTEROID DERIVATIVES” (UNIVERSITE NICE SOPHIA ANTIPOLIS, priority 2011, published 2014).
“Also recorded” adds a separate entry of the source.

What was measured:
GLUT4 [1] = assay: GLUT4 on the surface of insulin-resistant adipocytes; format: cell-based; settings: adipocytes made insulin resistant by insulin for 24 h, then insulin for 20 min with or without ST10
GLUT4 [2] = assay: Sensitivity of adipocytes to insulin (GLUT4 on the plasma membrane); format: cell-based; settings: FIG. 3B
Experimental: The effect of insulin and of ST10 on the amount of GLUT4 on the plasma membrane was measured (FIG. 3A) and the sensitivity of the cells to insulin was calculated (FIG. 3B).

GLUT4 [3] = assay: GLUT4 at the surface of 3T3-L1 adipocytes, with or without insulin; format: cell-based; settings: for effect on the effectiveness of insulin on GLUT4 translocation: 3T3-L1 adipocytes, 20 minutes, aminosteroid 50 μM, insulin 1 nM present or absent
Source text: One of the key components in the insulin-induced uptake of sugar by myocytes and adipocytes is the GLUT4 glucose (sugar) transporter. When insulin binds to its receptor at the surface of these cells, or during a muscle contraction, intracellular signalling pathways are activated, resulting in the translocation of GLUT4 from its intracellular storage compartment to the plasma membrane, where it enables sugar to enter from the extracellular medium. GLUT4 therefore plays an important role in carbohydrate homeostasis and, consequently, in T2D. 3T3-L1 adipocytes are stimulated for 20 minutes with the aminosteroids (50 μM), in the presence or absence of insulin (1 nM), and are labelled for GLUT4 at the surface of the cells. The percentage of GLUT4 at the surface of the cells is then determined.

3T3-L1 adipocytes = assay: Glucose uptake in 3T3-L1 adipocytes; format: cell-based; settings: various insulin concentrations, with or without ST10
[4] = design: species or system mice; settings: mouse, in vivo
Experimental: Healthy mice were treated in the same way as previously. A dose of insulin was injected into these mice (at t=0). The blood glucose level of the mice was measured until 120 minutes after the insulin injection. […] The treatment with the ST20 derivative therefore prolongs the effect of insulin.

Row | SMILES | effect of insulin on GLUT4 on the surface of insulin-resistant cells (GLUT4 [1]) | sensitivity of the cells to insulin (GLUT4 [2]) | effect on the effectiveness of insulin on GLUT4 translocation (GLUT4 [3]) | increase in GLUT4 at the surface of the plasma membrane (PM), ST10 versus trodusquemine (GLUT4 [3]; FIG. 1C) | glucose uptake in adipocytes (3T3-L1 adipocytes) | severe hypoglycaemia in the ITT [4]
1 | CC(C)CCC[C@@H](C)[C@H]1CC[C@H]2[C@@H]3C[C@@H](NCCCNCCCCNCCCN)[C@H]4C[C@@H](O)CC[C@]4(C)[C@H]3CC[C@]12C [ST10, 6β-(spermine)cholestan-3β-ol] | also increases the effect of the insulin | increases the sensitivity of the cells to insulin | increases the effectiveness of insulin on GLUT4 translocation | greater in the presence of ST10 than in the presence of trodusquemine | increases glucose uptake in the adipocytes; also recorded: increased by ST10 for all the insulin concentrations tested | –
2 | CC(C)CCC[C@@H](C)[C@H]1CCC2C3C[C@@H](NCCCCNCCCN)C4=C[C@@H](O)CC[C@]4(C)C3CC[C@@]21C (stereo partly drawn) [ST20, 6β-(spermidine)cholesten-3β-ol] | – | – | – | – | – | did not cause severe hypoglycaemia
3 | CC(C)[C@@H](CC[C@@H](C)[C@H]1CC[C@H]2[C@@H]3[C@H](O)C[C@H]4C[C@@H](NCCCNCCCCNCCCN)CC[C@]4(C)[C@H]3CC[C@]12C)OS(=O)(=O)O [trodusquemine, reference compound] | – | – | not | – | – | –
